Measurements as given in PubChem BioAssay (NCI).
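Step 1: Grow cells in 96-well plates. Step 2: Expose to compound for 48 hours at 5 concentrations. Step 3: Interpolate endpoints linearly; if unreached, use highest concentration. TGI marks complete inhibition of growth.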

Experiments:
Experiment in all cases: DTP human tumour cell line panel, 48 h
SK-OV-3 ovarian = system: SK-OV-3 ovarian
HCT-15 colon = system: HCT-15 colon
COLO 205 colon = system: COLO 205 colon
786-0 renal = system: 786-0 renal
M14 melanoma = system: M14 melanoma
SF-268 CNS = system: SF-268 CNS
MDA-MB-231 breast = system: MDA-MB-231 breast
KM12 colon = system: KM12 colon
SF-295 CNS = system: SF-295 CNS
SW-620 colon = system: SW-620 colon
PC-3 prostate = system: PC-3 prostate
MDA-N = system: MDA-N

Row | SMILES | TGI (SK-OV-3 ovarian) [µM] | TGI (HCT-15 colon) [µM] | TGI (COLO 205 colon) [µM] | TGI (786-0 renal) [µM] | TGI (M14 melanoma) [µM] | TGI (SF-268 CNS) [µM] | TGI (MDA-MB-231 breast) [µM] | TGI (KM12 colon) [µM] | TGI (SF-295 CNS) [µM] | TGI (SW-620 colon) [µM] | TGI (PC-3 prostate) [µM] | TGI (MDA-N) [µM]
1 | O=C(O)Cc1ccc(Oc2nc3ccccc3nc2C(=O)O)cc1 | > 100 | > 100 | > 100 | > 100 | > 100 | > 100 | > 100 | > 100 | > 100 | > 100 | > 100 | –
2 | COc1cc(NC(C)=O)ccc1C(=O)NN1C(=O)C(Cl)C1c1ccco1 (stereo unspecified) | – | > 100 | > 100 | > 100 | > 100 | > 100 | – | > 100 | – | > 100 | > 100 | > 100
3 | COc1ccc2c(c1)/C(=C\c1c(C)nc3sc(C)cn13)C(=O)N2 | 23 | 74.6 | – | 72.7 | > 100 | 53.7 | 73.6 | 62.4 | > 20.4 | > 100 | > 100 | 0.46
4 | N#CC(=C1CCCCC1)c1nc2ccccc2o1 | > 100 | > 100 | 33.7 | > 100 | > 100 | > 100 | > 100 | > 100 | > 100 | – | > 100 | > 100
5 | Cc1cc(N=Nc2c(O)ccc3ccccc23)ccc1N=Nc1cccc([N+](C)(C)C)c1 | > 75.3 | > 84.4 | – | > 92 | 59.3 | 57.1 | 55.3 | 17.3 | 51.9 | 46.9 | 35.1 | > 100
6 | O=C(O)CS | > 100 | > 100 | > 100 | > 100 | – | > 100 | – | > 100 | > 100 | > 100 | – | –
7 | Cc1c2c(n(CCc3ccccc3)c1C)N(C)N=C(C#N)S2(=O)=O | > 100 | > 100 | – | > 100 | > 100 | > 100 | > 100 | > 100 | > 100 | > 100 | > 100 | > 100
8 | CC1(C)OB(O)OC1(C)C | > 100 | > 100 | > 100 | > 100 | > 100 | > 100 | – | > 100 | > 100 | > 100 | – | –
9 | C=C1C(=O)OC2/C=C(/C)C3CC(O)C(C)(CC(OC(=O)/C(C)=C/C)C12)O3 (stereo unspecified) | > 65.2 | 3.61 | 3.08 | 11.5 | 9.08 | 14.4 | – | 11.3 | > 54 | 3.46 | – | –
10 | CC(C)CCC[C@@H](C)C1CCC2[C@@H]3CC=C4C[C@@H](C(=O)NCC[N+](C)(C)CCCS(=O)(=O)[O-])CC[C@]4(C)C3CC[C@@]21C (stereo partly specified) | 30.9 | 30.9 | 31.9 | 31.1 | 31.6 | 37.8 | – | 31.5 | 35 | 30.7 | – | –
11 | CCN(CC)CCCC(C)Nc1ccnc2ccc3nn(C)nc3c12 (stereo unspecified) | > 100 | – | > 100 | > 100 | 90.1 | > 100 | – | > 100 | > 100 | 75.7 | – | –
12 | OC[C@]1(n2nc3ccccc3n2)OC[C@@H]1c1ccccc1 | > 100 | > 100 | > 100 | > 100 | > 100 | > 100 | > 100 | > 100 | > 100 | – | > 100 | > 100
13 | N#CC(C#N)=C(N)/C(C#N)=C/c1ccc2ccccc2n1 | > 100 | 80.1 | – | 34.2 | > 100 | > 100 | 72.5 | 41.5 | 59.6 | – | 79.4 | > 100
14 | O=C(NNC(c1ccccc1)C(F)(F)F)c1ccncc1 (stereo unspecified) | – | > 100 | > 100 | > 100 | > 100 | > 100 | > 100 | > 100 | > 100 | > 100 | > 100 | –
15 | CC1=C(C(=O)Nc2cc(=O)n(C)c(=O)n2C)C(c2ccc([N+](=O)[O-])cc2)C(C(=O)Nc2cc(=O)n(C)c(=O)n2C)=C(C)N1 | > 100 | > 100 | > 100 | > 100 | > 100 | > 100 | – | > 100 | > 100 | > 100 | – | –
16 | CCOC(=O)Cc1csc2[n+]1C(=O)/C(=C/c1cccc(OC)c1O)S2 | > 100 | > 100 | > 100 | > 100 | > 100 | – | > 100 | > 100 | > 100 | > 100 | > 100 | > 100
17 | O=C(Nc1cc2c(=O)oc3ccccc3c2oc1=O)c1cccnc1 | > 100 | > 100 | > 100 | > 100 | > 100 | – | > 100 | > 100 | > 100 | > 100 | > 100 | > 100
18 | O=C(Cc1csc(-c2nc(CC(=O)NNc3ccccc3)cs2)n1)NNc1ccccc1 | > 100 | > 100 | 64 | > 100 | > 100 | > 100 | – | > 100 | > 100 | – | – | –
19 | COc1cc(/C=C2/SC(c3ccccc3)N(c3ccccc3)C2=O)cc(OC)c1OC (stereo unspecified) | > 100 | > 100 | > 100 | > 100 | > 100 | > 100 | > 100 | > 100 | > 100 | > 100 | – | –
20 | c1ccc(P(CCP(c2ccccn2)c2ccccn2)c2ccccc2)cc1 | > 100 | > 100 | 37.8 | > 100 | > 100 | – | – | > 100 | > 56.6 | > 100 | 72.6 | > 100
21 | CC(=O)c1ccc2c(ccc(=O)n2C)c1 | > 100 | > 100 | > 100 | > 100 | > 100 | > 100 | – | > 100 | > 100 | > 100 | – | –
